Data on seven molecules can be found in patent publication US20040171086A1, “Selective modulation of TLR-mediated biological activity” (3M Innovative Properties Company, priority 2003, published 2004).

What all share (format): cell-based, human
For one assay, the system named is Myeloid DCs. Description: IL-12 production by myeloid DCs (IGEN analysis). The method, then:
(§1) The blood myeloid dendritic cells (mDC) were isolated from the BDCA-4 negative cell fraction using the Miltenyi Microbead technology system (Miltenyi BioTec, Auburn, Calif.). Cells were resuspended in 4° C. separation buffer (PBS- pH 7.2, 0.5% BSA-2.5 gm, 2 mM 0.5M EDTA) at 20 μl per 10^7 total cells. […] The cells were resuspended in 500 μL of separation buffer per 10^8 total cells. […] BDCA-1^+mDCs were enriched using the Miltenyi Automacs POSSELD software. The cells retained in the column were eluted into a sterile 50 mL polystyrene conical tube.
(§2) Compounds, reconstituted in dimethyl sulfoxide (DMSO, sterile cell culture grade, Sigma Chemical Co., St. Louis, Mo.) were added at 2× their final concentration to a 96-well flat-bottom sterile tissue culture polystyrene plate (Benton Dickinson Labware, Franklin Lakes, N.J.). Cells were then added at 2× the final concentration (final cell concentration is 1×10^6 cells/mL). Plates were incubated for 16-24 hours at 37° C., 5% CO2. After incubation, plates were centrifuged at 1000 RPM for 10 minutes at 25° C. Supernatants were transferred to a 0.75 mL sterile polypropylene Matrix box (Matrix, Hudson, N.Y.) and stored at −20° C. for future cytokine analysis.
IL-12 analysis was performed using IGEN analysis. More than two hours prior to performing the analysis, a 1:20 dilution of M-280 Streptavidin Dynabeads was prepared in IGEN buffer. Also, a 1 μg/mL solution of biotinylated IL-12 antibody (Cat. No. AHC7129, Biosource International, Camarillo, Calif.) in IGEN buffer was prepared. The 1:20 Dynabeads solution and the biotinylated antibody solution were mixed together and incubated 30 minutes at room temperature, then stored at 4° C. until the analysis was performed.
To perform the analysis, 50 μL of the Dynabeads/biotinylated antibody solution was added to each well of a 96-well plate. […] 25 μL of sample was added to each well, each sample containing either a standard dilution or an experimental sample.
The 96-well plate was tapped to mix the contents of each well, covered with plate sealer, and incubated at room temperature for 2.5 hours. Following the incubation, 100 μL of IGEN PBS Buffer was added to each well for a total assay volume of 200 μL and read on the IGEN M-8 Analyzer (IGEN International, Inc., Gaithersburg, Md.) using the hIL-12 protocol.

Assay [1] has as its system myeloid dendritic cells (mDCs). Description: Activation of blood myeloid dendritic cells (CD80/HLA-DR staining, flow cytometry). As to conditions: two donors; 1 μM IRM or 3 μM CpG2216, 16-24 hours; HLA-DR positive with increased CD80; FIG. 1. The method, then: as §1, §2
In general terms: In flow cytometry, cells or beads pass a laser one at a time.

Assay [2] concerns plasmacytoid dendritic cells (pDCs). Description: Activation of plasmacytoid dendritic cells (CD80/HLA-DR staining, flow cytometry). As to conditions: two donors; 1 μM IRM or 3 μM CpG2216, 16-24 hours; HLA-DR positive with increased CD80; FIG. 2. On the procedure:
The cells were resuspended in 500 μL of separation buffer per 10^8 total cells. […] The cells retained in the column were eluted into a sterile 50 mL polystyrene conical tube.
as §2

As for `CCOCc1nc2c(N)nc3ccccc3c2n1CC(C)(C)O` [IRM40, 4-amino-α,α-dimethyl-2-ethoxymethyl-1H-imidazo[4,5-c]quinolin-1-ethanol], the IL-12 with Myeloid DCs (donor3, 3.0 μM IRM) is recorded as 517 pg/mL; in the assay with Myeloid DCs (donor4, 3.0 μM IRM) it was 765 pg/mL.
As to `CCOCc1nc2c(N)nc3ccccc3c2n1CCCNC(=S)Nc1cccc(C#N)c1` [IRM37, N-{3-[4-amino-2-(ethoxymethyl)-1H-imidazo[4,5-c]quinolin-1-yl]propyl}-N′-(3-cyanophenyl)thiourea], the IL-12 with Myeloid DCs (donor3, 3.0 μM IRM) was 296 pg/mL; in the assay with Myeloid DCs (donor4, 3.0 μM IRM), 491 pg/mL.
Regarding `Cc1nc2c(N)nc3ccccc3c2n1CCCCNC(=O)N1CCCCC1` [IRM38, N-[4-(4-amino-2-methyl-1H-imidazo[4,5-c]quinolin-1-yl)butyl]piperidine-1-carboxamide], the IL-12 in the assay with Myeloid DCs (donor3, 3.0 μM IRM) is reported as 17 pg/mL; in the assay with Myeloid DCs (donor4, 3.0 μM IRM) it was 20 pg/mL.
With `CCc1nc2c(N)nc3ccccc3c2n1CC(C)(C)NC(=O)Nc1ccccc1` [IRM39, N-[2-(4-amino-2-ethyl-1H-imidazo[4,5-c]quinolin-1-yl)-1,1-dimethylethyl]-N′-phenylurea], the IL-12 turned out to be 280 pg/mL with Myeloid DCs (donor3, 3.0 μM IRM) and 400 pg/mL in the assay with Myeloid DCs (donor4, 3.0 μM IRM).
Regarding `CCCc1nc2c(N)nc3ccccc3c2s1` [IRM9, 2-propylthiazolo[4,5-c]quinolin-4-amine], in the assay with Myeloid DCs (donor3, 3.0 μM IRM), the IL-12 was found to be 693 pg/mL.
As to `CCc1nc2c(N)nc3ccccc3c2n1CCCCNS(C)(=O)=O` [IRM36, N-[4-(4-amino-2-ethyl-1H-imidazo[4,5-c]quinolin-1-yl)butyl]methanesulfonamide], the “activation of myeloid dendritic cells (mDCs) in vitro” value in assay [1] is listed as “not activated”. Also, the “activation of plasmacytoid dendritic cells (pDCs) in vitro” value in assay [2] is “activated”. The IL-12 in the assay with Myeloid DCs (donor3, 3.0 μM IRM) was 57 pg/mL; in the assay with Myeloid DCs (donor4, 3.0 μM IRM), 77 pg/mL.
As to `CC(C)Cn1cnc2c(N)nc3ccccc3c21` [IRM41, 1-(2-methylpropyl)-1H-imidazo[4,5-c]quinolin-4-amine], the IL-12 stood at 17 pg/mL in the assay on Myeloid DCs (donor3, 3.0 μM IRM) and 39 pg/mL with Myeloid DCs (donor4, 3.0 μM IRM).
